# Where “and” joins values, the source holds several entries; their conditions need not be identical. Identical values can stand only once.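 Test compounds were applied to cells in 96-well plates for 48 hours at 5 doses. GI50 = concentration required for 50% inhibition of growth. TGI marks complete inhibition of growth.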
# How the values were obtained:
# Assay in all cases: DTP human tumour cell line panel, 48 h
# 786-0 renal = tested on: 786-0 renal
# A549 NSCLC = tested on: A549 NSCLC
# COLO 205 colon = tested on: COLO 205 colon
# HCT-15 colon = tested on: HCT-15 colon
# K-562 leukemia = tested on: K-562 leukemia
# KM12 colon = tested on: KM12 colon
# MOLT-4 leukemia = tested on: MOLT-4 leukemia
# RXF 393 renal = tested on: RXF 393 renal
# SK-MEL-5 melanoma = tested on: SK-MEL-5 melanoma
# SW-620 colon = tested on: SW-620 colon
Compound,TGI (786-0 renal),TGI (A549 NSCLC),TGI (COLO 205 colon),TGI (HCT-15 colon),TGI (K-562 leukemia),TGI (KM12 colon),TGI (MOLT-4 leukemia),TGI (RXF 393 renal),TGI (SK-MEL-5 melanoma),TGI (SW-620 colon),GI50 (A549 NSCLC),GI50 (COLO 205 colon),GI50 (HCT-15 colon),GI50 (K-562 leukemia),GI50 (KM12 colon),GI50 (MOLT-4 leukemia),GI50 (RXF 393 renal),GI50 (SK-MEL-5 melanoma),GI50 (SW-620 colon),GI50 (786-0 renal)
c1cc(-c2sc(-c3ccncc3)c(-c3ccncc3)c2-c2ccncc2)ccn1,33 µM,45.8 µM,27.4 µM,56.7 µM,> 100 µM,65.5 µM,> 100 µM,33.4 µM,28.6 µM,59.5 µM,,,,,,,,,,
CCCCS(=N)(=O)CC[C@H](N)C(=O)O (some centres not stated),434 µM and > 2460 µM,> 10000 µM,> 10000 µM,4940 µM and > 10000 µM,> 10000 µM,> 10000 µM,3810 µM and > 10000 µM,> 10000 µM,> 10000 µM,> 10000 µM,> 8030 µM,> 10000 µM,> 6960 µM,11.3 µM,> 10000 µM,1540 µM,> 10000 µM,> 10000 µM,3710 µM,
CCc1cccc(C)c1NC(=O)CC1Sc2ccccc2NC1=O (configuration not stated),> 100 µM,> 100 µM,> 100 µM,> 100 µM,> 100 µM,> 100 µM,> 100 µM,73.7 µM,> 100 µM,> 100 µM,,,,,,,,,,
CN(C)CCNc1cccc2sc3ccc(O)cc3c(=O)c12,6.28 µM,5.54 µM,15.3 µM,5.09 µM,5.6 µM,14.3 µM,2.81 µM,7.38 µM,3.25 µM,3.44 µM,0.643 µM,3.92 µM,1.43 µM,2.4 µM,3.22 µM,0.483 µM,1.95 µM,1.69 µM,1.16 µM,2.23 µM
c1ccc(COc2ccc3[nH]c4c(ncc5[nH]c6ccccc6c54)c3c2)cc1,18.5 µM,34.9 µM,47.1 µM,14.9 µM,6.11 µM,29.5 µM,31.6 µM,23.3 µM,30 µM,32.3 µM,,,,,,,,,,
OC1CCC(Oc2cccc3cnc(Nc4ccc5nc[nH]c5c4)nc23)CC1 (configuration not stated),10.1 µM,19.7 µM,0.886 µM,16.7 µM,19.3 µM,11.9 µM,0.636 µM,0.504 µM,6.51 µM,16.5 µM,0.404 µM,0.21 µM,0.508 µM,0.536 µM,0.23 µM,0.157 µM,0.208 µM,0.47 µM,0.407 µM,0.336 µM
CC[C@@]1(OC(=O)CCC(=O)O)C(=O)OCc2c1cc1n(c2=O)Cc2cc3ccccc3nc2-1,0.394 µM,5.54 µM,8.49 µM,11.7 µM,> 61.8 µM,3.2 µM,0.163 µM,1.53 µM,0.373 µM,16.8 µM,,,,,,,,,,
O=C1OCC2=Nc3cccc4cccc(c34)N12,> 100 µM,> 100 µM,> 100 µM,> 100 µM,> 100 µM,> 100 µM,> 100 µM,> 100 µM,> 100 µM,> 100 µM,,,,,,,,,,
O=[N+]([O-])/C=C\c1ccc2c(c1)OCO2,3.52 µM,5.23 µM,13.4 µM,6.68 µM,> 100 µM,4.43 µM,67.7 µM,3.1 µM,13.9 µM,4.91 µM,2.34 µM,3.71 µM,2.46 µM,3.16 µM,2.04 µM,17.6 µM,1.66 µM,3.68 µM,2.07 µM,1.84 µM
Cc1ccc2c(c1)sc(-c1ccc(N(C)C)cc1)[n+]2C,> 45.9 µM,,1.44 µM,> 100 µM,> 50.3 µM,14.6 µM,> 48.7 µM,> 47.4 µM,1.8 µM,> 66 µM,0.741 µM,0.368 µM,18.8 µM,0.242 µM,0.397 µM,1.93 µM,9.16 µM,0.39 µM,2.28 µM,3.69 µM
Nc1ccc2c(c1)[O][Sn]([c]1ccccc1)([c]1ccccc1)[O]C2=O,7.95 µM,15.9 µM,13.2 µM,17.9 µM,15.2 µM,33.5 µM,29.7 µM,6.09 µM,25 µM,8.35 µM,4.61 µM,6.58 µM,6.8 µM,2.56 µM,16.5 µM,5.01 µM,2.06 µM,11.6 µM,2.93 µM,3.79 µM
C=C1C(O)C2C(=C(CC(C)C)C13CC3)C(=O)C(C)(C)C2OC (configuration not stated),> 100 µM,> 100 µM,> 100 µM,> 100 µM,> 100 µM,> 100 µM,66.8 µM,> 100 µM,> 100 µM,> 100 µM,> 100 µM,> 100 µM,> 100 µM,81.5 µM,> 100 µM,24.2 µM,> 100 µM,> 100 µM,> 100 µM,> 100 µM
ClCCn1cnc2c(SCc3ccccc3)ncnc21,19.7 µM,76.5 µM,> 100 µM,> 100 µM,> 100 µM,> 100 µM,> 100 µM,63.5 µM,> 100 µM,> 100 µM,1.22 µM,1.79 µM,0.334 µM,0.64 µM,1.04 µM,0.823 µM,11.4 µM,0.79 µM,3.14 µM,1.05 µM
COc1ccc(N=Cc2ccc(N(CCC#N)CCC#N)cc2)cc1,> 100 µM,> 100 µM,> 100 µM,> 100 µM,> 100 µM,> 100 µM,> 100 µM,> 100 µM,> 100 µM,> 100 µM,,,,,,,,,,
O=C1/C(=C\c2cccs2)Oc2ccccc21,> 100 µM,> 100 µM,> 100 µM,> 100 µM,> 100 µM,> 100 µM,> 100 µM,> 100 µM,> 100 µM,> 100 µM,,,,,,,,,,
Cn1cnc([N+](=O)[O-])c1Sc1ncnc2nc[nH]c12,> 100 µM,> 100 µM,65.1 µM and > 100 µM,> 100 µM,> 100 µM,> 100 µM,> 100 µM,> 100 µM,> 100 µM,> 100 µM,40 µM and > 67.3 µM,11.6 µM and 19.9 µM,14.2 µM and 19.6 µM,2.49 µM and 1.3 µM,4.25 µM and 10.8 µM,8.77 µM and 6.68 µM,35.2 µM,12.1 µM and 14.4 µM,18.8 µM and 32.1 µM,3.25 µM and 3.77 µM
Cc1cc2occ(C)c(=O)c2c2c1OC(C)(C)S2,> 100 µM,> 100 µM,> 100 µM,> 100 µM,> 100 µM,> 100 µM,> 100 µM,> 100 µM,> 100 µM,> 100 µM,,,,,,,,,,
CC(O)C(NC(=O)C(CS)NC(=O)C(CO)NC(=O)C(CCCCN)NC(=O)C(Cc1c[nH]c2ccccc12)NC(=O)C(Cc1ccc(O)cc1)NC(=O)C(CS)NC(=O)C(N)Cc1ccccc1)C(N)=O (configuration not stated),> 25 µM and 79 µM,> 25 µM and 51.6 µM,> 25 µM and 66.2 µM,> 25 µM and 56.2 µM,> 25 µM and 32.1 µM,> 25 µM and 58 µM,> 25 µM and 67.4 µM,> 25 µM and 36.6 µM,> 25 µM,> 25 µM,18.7 µM,20.7 µM,,17.8 µM,,,14.5 µM,,,
Cc1c(C(=O)CC(=O)C(=O)NC2C3CC4CC(C3)CC2C4)[n+](=O)c2ccccc2n1[O-] (configuration not stated),> 100 µM,> 100 µM,> 100 µM,> 100 µM,> 100 µM,> 100 µM,> 100 µM,> 100 µM,> 100 µM,> 100 µM,,,,,,,,,,

# From PubChem BioAssay (NCI)
